For experiment [1], the target named is Serine/threonine-protein kinase 25 (Homo sapiens) (UniProt O00506). Description: Inhibition of YSK1 Lys2 labeling site in human Huh-7 cells at 1 uM by KiNativ Profiling analysis relative to control. In kind it is cell-based.
In experiment [2] the target is eIF-2-alpha kinase GCN2 (Homo sapiens) (UniProt Q9P2K8). Description: Inhibition of GCN2 domain2 Lys2 labeling site in human Huh-7 cell lysate at 1 uM by KiNativ Profiling analysis relative to control. Format: subcellular.
Experiment [3] deals with T1, Aurora kinase A (Homo sapiens) (UniProt O14965).
T1 sequence (whole entry): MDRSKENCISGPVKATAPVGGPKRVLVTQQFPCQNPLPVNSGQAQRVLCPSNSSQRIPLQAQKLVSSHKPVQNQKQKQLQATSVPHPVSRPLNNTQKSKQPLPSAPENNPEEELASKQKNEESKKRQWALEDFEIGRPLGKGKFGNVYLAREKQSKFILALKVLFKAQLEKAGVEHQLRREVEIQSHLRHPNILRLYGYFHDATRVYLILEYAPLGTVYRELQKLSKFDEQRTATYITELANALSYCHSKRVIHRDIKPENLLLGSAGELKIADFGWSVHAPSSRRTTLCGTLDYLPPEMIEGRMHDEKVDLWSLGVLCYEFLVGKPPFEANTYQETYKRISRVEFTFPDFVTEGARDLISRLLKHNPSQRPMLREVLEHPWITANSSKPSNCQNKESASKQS
Put plainly: Inhibition of AurA Lys2 labeling site in human Huh-7 cell lysate at 1 uM by KiNativ Profiling analysis relative to control. Format: subcellular.

Experiment [4] deals with 1-phosphatidylinositol 3-phosphate 5-kinase (Homo sapiens) (UniProt Q9Y2I7). Put plainly: Inhibition of PIP5K3 ATP labeling site in human Huh-7 cell lysate at 1 uM by KiNativ Profiling analysis relative to control. Format: subcellular.
Experiment [5] concerns Tyrosine-protein kinase ABL1 (Homo sapiens), P00519 [T315I]. Description: Inhibition of phosphorylated ABL1 T315I mutant (unknown origin) at 1 uM by Ambit Kinomescan binding assay relative to control; values are per cent of control.
For experiment [6], the target named is Serine/threonine-protein kinase 4 (Homo sapiens) (UniProt Q13043). Description: Inhibition of MST1 Lys2 labeling site harbouring DIKAGNILLNTEGHAK in human A-375 cells at 0.05 uM by KiNativ Profiling analysis relative to control.
The target in experiment [7] is Receptor tyrosine-protein kinase erbB-4 (Homo sapiens) (UniProt Q15303). Put plainly: Inhibition of ERBB4 (unknown origin) at 1 uM by Ambit Kinomescan binding assay relative to control.
Experiment [8] deals with Non-receptor tyrosine-protein kinase TNK1 (Homo sapiens) (UniProt Q13470). Put plainly: Inhibition of TNK1 (unknown origin) at 1 uM by Ambit Kinomescan binding assay relative to control.
Experiment [9] concerns the target Putative phosphatidylinositol 4-kinase alpha-like protein P2 (Homo sapiens) (UniProt A4QPH2). Put plainly: Inhibition of PI4KAP2 ATP labeling site in human A-375 cells at 0.5 uM by KiNativ Profiling analysis relative to control. In kind it is cell-based.
Experiment [10] addresses Serine/threonine-protein kinase N2 (Homo sapiens) (UniProt Q16513). Description: Inhibition of PKN2 (unknown origin) at 1 uM by Ambit Kinomescan binding assay relative to control; values are per cent of control.
For experiment [11], the target named is T2, Mitogen-activated protein kinase kinase kinase 15 (Homo sapiens) (UniProt Q6ZN16).
T2 sequence (whole entry): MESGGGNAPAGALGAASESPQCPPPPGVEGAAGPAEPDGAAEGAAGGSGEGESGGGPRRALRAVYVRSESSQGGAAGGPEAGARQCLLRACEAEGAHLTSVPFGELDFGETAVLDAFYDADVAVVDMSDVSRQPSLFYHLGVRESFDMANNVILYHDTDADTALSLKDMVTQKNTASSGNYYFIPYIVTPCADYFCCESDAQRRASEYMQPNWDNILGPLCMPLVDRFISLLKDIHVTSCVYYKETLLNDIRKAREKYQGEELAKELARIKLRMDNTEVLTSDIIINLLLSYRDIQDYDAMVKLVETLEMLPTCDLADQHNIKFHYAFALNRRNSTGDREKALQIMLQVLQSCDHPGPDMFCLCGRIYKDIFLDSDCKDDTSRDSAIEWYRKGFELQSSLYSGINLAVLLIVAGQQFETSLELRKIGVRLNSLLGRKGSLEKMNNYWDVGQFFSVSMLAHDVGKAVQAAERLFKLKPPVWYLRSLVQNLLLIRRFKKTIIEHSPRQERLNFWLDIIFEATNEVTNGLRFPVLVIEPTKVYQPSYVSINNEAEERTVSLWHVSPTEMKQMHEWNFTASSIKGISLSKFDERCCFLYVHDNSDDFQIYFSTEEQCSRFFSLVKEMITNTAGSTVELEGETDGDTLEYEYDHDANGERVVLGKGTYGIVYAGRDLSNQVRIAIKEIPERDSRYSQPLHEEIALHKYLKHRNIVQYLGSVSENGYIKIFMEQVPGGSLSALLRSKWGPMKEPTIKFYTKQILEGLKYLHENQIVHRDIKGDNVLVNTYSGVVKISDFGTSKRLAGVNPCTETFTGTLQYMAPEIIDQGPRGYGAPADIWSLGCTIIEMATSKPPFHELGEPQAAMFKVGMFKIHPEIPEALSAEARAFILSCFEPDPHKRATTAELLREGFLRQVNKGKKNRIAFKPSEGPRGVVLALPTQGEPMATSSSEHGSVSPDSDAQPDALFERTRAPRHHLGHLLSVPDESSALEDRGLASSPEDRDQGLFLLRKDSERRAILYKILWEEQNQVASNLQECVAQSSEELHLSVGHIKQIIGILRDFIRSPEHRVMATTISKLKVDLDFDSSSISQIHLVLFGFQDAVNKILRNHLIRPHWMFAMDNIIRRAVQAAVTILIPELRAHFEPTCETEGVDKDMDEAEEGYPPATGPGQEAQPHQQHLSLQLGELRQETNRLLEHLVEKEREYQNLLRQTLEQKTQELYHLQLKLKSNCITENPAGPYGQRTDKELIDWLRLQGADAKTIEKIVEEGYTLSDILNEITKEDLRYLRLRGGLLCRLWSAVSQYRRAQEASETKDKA
Description: Inhibition of MAP3K15 Lys1 labeling site harbouring IAIKEIPER in human A-375 cells at 0.05 uM by KiNativ Profiling analysis relative to control. Format: cell-based.

The target in experiment [12] is Wee1-like protein kinase 2 (Homo sapiens) (UniProt P0C1S8). Put plainly: Inhibition of WEE2 (unknown origin) at 10 uM by Ambit Kinomescan binding assay.
Experiment [13] has as its target STE20-like serine/threonine-protein kinase (Homo sapiens) (UniProt Q9H2G2). Description: Inhibition of SLK Lys1 labeling site in human A-375 cells at 5 uM by KiNativ Profiling analysis relative to control. In kind it is cell-based.

Active and inactive are the calls of the source. The rule behind the calls is not given here.

Chain of Serine/threonine-protein kinase N2 (Homo sapiens) (Q16513 whole entry, looked up): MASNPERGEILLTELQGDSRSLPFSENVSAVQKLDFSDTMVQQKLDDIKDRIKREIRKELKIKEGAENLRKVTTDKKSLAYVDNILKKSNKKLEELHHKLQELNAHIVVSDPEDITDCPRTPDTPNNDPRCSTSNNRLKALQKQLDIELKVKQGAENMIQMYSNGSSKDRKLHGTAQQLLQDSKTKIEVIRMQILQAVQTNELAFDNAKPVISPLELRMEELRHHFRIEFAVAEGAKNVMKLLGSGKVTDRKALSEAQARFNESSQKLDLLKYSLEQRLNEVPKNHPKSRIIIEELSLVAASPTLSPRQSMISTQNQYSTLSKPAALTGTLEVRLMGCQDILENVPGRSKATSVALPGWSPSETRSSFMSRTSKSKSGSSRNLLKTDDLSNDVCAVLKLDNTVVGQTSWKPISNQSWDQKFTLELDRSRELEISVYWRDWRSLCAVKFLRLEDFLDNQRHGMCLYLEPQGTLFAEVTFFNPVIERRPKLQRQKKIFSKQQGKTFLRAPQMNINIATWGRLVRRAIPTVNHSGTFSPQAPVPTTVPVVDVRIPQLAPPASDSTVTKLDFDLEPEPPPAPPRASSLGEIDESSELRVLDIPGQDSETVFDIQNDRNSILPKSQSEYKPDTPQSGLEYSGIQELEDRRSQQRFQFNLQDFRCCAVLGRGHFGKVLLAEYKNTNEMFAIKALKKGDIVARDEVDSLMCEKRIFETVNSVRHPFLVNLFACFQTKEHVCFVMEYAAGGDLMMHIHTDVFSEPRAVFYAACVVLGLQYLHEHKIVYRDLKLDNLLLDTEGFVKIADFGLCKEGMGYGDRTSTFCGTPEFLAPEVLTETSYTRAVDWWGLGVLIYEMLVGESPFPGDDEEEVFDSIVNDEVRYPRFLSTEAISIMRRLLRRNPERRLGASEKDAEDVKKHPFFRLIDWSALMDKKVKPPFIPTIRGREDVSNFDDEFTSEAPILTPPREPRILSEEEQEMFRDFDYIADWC
Chain of 1-phosphatidylinositol 3-phosphate 5-kinase (Homo sapiens) (Q9Y2I7 whole entry): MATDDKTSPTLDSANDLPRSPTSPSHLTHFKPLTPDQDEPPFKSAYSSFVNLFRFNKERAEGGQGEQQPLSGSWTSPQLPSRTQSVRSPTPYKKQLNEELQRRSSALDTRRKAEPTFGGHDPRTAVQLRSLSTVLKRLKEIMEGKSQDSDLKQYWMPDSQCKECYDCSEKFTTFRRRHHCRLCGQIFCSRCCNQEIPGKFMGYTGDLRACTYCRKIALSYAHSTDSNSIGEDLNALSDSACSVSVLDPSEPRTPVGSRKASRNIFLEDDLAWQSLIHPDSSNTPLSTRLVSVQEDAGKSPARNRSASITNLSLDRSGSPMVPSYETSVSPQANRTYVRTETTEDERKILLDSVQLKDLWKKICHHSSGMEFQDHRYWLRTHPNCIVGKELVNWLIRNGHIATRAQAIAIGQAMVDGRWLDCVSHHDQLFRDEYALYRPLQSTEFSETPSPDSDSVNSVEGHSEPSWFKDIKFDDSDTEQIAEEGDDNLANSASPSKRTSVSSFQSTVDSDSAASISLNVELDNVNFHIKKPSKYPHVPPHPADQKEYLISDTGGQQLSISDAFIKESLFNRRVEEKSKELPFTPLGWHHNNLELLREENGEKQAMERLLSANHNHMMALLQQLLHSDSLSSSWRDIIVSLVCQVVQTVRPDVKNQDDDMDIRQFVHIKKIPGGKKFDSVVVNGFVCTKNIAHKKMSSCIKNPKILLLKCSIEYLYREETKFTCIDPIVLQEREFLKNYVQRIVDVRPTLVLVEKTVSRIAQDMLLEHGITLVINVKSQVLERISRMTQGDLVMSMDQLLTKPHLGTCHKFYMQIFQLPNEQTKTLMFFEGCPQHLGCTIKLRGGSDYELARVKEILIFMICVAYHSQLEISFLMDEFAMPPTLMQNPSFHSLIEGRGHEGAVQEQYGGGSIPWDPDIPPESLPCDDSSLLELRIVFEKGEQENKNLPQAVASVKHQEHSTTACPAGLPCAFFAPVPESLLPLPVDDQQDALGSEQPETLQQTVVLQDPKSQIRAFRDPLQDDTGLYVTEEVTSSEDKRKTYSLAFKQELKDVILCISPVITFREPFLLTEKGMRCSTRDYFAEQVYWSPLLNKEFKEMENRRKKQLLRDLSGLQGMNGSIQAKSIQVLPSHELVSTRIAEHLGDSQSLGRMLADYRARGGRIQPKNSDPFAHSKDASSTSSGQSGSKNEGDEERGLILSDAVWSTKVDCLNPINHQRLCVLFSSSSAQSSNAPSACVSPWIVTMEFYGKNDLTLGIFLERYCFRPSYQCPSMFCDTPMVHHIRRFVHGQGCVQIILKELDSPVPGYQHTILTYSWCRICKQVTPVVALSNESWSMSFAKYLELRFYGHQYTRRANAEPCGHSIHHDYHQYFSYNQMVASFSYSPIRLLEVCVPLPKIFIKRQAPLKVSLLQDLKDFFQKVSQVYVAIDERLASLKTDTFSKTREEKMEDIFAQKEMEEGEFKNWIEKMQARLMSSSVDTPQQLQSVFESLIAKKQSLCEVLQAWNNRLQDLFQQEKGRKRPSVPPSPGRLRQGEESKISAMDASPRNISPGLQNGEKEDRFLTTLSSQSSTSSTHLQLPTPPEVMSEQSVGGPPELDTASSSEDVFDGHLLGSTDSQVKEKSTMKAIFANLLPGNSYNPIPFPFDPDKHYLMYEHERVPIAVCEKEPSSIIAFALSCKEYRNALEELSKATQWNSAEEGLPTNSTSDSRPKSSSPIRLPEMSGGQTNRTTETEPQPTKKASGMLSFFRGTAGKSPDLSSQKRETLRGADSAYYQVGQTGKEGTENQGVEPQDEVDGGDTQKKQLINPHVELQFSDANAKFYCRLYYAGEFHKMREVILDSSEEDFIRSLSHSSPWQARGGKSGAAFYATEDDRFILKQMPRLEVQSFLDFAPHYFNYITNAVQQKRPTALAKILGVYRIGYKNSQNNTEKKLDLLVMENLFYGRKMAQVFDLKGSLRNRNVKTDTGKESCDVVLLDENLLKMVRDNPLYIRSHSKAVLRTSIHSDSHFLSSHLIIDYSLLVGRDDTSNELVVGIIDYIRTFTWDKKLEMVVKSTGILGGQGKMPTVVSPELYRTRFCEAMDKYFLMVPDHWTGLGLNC
Chain of Serine/threonine-protein kinase 4 (Homo sapiens) (Q13043 whole entry, looked up): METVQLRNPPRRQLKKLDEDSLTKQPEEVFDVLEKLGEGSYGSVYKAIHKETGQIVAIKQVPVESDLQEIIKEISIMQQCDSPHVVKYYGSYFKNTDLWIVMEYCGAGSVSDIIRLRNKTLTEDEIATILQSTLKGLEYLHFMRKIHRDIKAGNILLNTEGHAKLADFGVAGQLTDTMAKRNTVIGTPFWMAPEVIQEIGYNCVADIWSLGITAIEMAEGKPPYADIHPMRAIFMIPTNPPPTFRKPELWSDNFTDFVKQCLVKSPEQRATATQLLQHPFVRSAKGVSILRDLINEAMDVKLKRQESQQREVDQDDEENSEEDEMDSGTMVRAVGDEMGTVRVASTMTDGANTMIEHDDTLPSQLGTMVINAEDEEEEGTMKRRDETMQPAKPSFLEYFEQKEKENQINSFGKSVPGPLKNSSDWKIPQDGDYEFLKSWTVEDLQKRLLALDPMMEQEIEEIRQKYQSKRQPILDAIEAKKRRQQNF
Chain of Serine/threonine-protein kinase 25 (Homo sapiens) (O00506 whole entry, looked up, the tested form may be a part): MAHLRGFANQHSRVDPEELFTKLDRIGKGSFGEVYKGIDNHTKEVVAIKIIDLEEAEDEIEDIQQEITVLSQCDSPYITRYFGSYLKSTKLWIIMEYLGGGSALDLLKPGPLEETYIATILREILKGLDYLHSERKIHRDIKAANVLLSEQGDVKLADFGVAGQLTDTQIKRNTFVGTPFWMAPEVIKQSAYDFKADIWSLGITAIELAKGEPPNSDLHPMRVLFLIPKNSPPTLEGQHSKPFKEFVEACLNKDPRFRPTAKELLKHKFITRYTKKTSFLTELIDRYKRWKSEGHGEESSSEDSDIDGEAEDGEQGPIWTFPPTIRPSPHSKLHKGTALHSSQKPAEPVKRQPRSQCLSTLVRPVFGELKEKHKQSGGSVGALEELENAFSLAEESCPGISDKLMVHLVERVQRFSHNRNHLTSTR
Chain of Putative phosphatidylinositol 4-kinase alpha-like protein P2 (Homo sapiens) (A4QPH2 whole entry): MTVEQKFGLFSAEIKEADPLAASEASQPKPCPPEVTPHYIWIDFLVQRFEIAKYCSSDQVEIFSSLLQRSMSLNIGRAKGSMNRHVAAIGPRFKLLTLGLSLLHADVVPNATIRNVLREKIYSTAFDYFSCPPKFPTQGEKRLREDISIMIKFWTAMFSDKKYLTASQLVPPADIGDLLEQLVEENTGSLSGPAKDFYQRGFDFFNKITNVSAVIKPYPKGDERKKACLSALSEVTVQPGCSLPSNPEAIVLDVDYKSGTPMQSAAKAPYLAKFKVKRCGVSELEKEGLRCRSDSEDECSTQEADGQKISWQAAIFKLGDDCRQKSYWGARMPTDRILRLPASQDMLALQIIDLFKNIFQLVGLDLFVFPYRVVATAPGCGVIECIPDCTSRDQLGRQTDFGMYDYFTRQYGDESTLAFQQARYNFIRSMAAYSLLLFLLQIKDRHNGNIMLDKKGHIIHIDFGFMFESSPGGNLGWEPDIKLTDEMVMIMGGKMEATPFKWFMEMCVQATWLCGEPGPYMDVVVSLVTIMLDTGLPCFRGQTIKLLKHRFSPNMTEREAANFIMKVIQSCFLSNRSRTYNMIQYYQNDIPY

As to `CNc1cc(Oc2cc(C(=O)Nc3cc(N4CCN(C)CC4)cc(C(F)(F)F)c3)ccc2C)ncn1`, the inhibition (usually the drop in the measured response relative to a control, in per cent) in [1] was found to be 25.2%; in experiment [2] it was 2.5%; in [3] it was 6.6%; in [4], 0.7%.
`CCN1CCN(Cc2ccc(NC(=O)c3ccc(C)c(/C=C/c4cnc5[nH]ccc5c4OC)c3)cc2C(F)(F)F)CC1` displayed a percent of control in experiment [5] of 5.4%. For the same compound, the inhibition in experiment [6] was -7%; in experiment [7], 3%; in [8], 6.6%; in [9], -8%. The residual activity (usually the share of the control activity or signal that is left under treatment) in experiment [10] stood at 35%.
On to `CCN1CCN(Cc2ccc(NC(=O)c3ccc(C)c(Oc4ccnc5[nH]ccc45)c3)cc2C(F)(F)F)CC1`, for which the inhibition in [11] is 10.8%; in [13] it was 34.6%. In addition, the inhibition entry in experiment [12] is “inactive”.

The values above are taken from ChEMBL document CHEMBL5696442, “Discovery of type II inhibitors of TGFβ-activated kinase 1 (TAK1) and mitogen-activated protein kinase kinase kinase kinase 2 (MAP4K2)” (J Med Chem, 2015).
